Results published in patent US6608082B1, “Treatment of erectile dysfunction using isoquinoline compound melanocortin receptor ligands” (Lion Bioscience AG, priority 1998, dated 2003).
Read-outs that look alike come from different tables or passages of the source.

Molecular target: T1, MCR-1 (Homo sapiens, UniProt Q01726)
T1 construct: expressed in transfected cells; host or cells: HEK 293
Test: Melanocortin receptor binding assay, competition with 125I-HP 467, HEK 293 cells expressing hMCR-1
Details: for IC50: read-out: MC-1 IC50; for % Disp. MC-1 10 μM: displacement of 125I-HP 467 at 10 μM isoquinoline compound; for % Disp. of 125I-HP 467 (first of duplicate) / % Disp. of 125I-HP 467 (second of duplicate): 10 μM isoquinoline compound; for % Disp. of 125I-HP 467 (first of duplicate): HEK 293 cells expressing MCR-1, duplicate 1; for % Disp. of 125I-HP 467 (second of duplicate): HEK 293 cells expressing MCR-1, duplicate 2
Method: All cell culture media and reagents were obtained from GibcoBRL (Gaithersburg Md.), except for COSMIC CALF SERUM (HyClone; Logan Utah).
Cells were suspended in PBS, 10% COSMIC CALF SERUM and 1 mM CaCl2. Cell suspensions were prepared at a density of 2×10^4 cells/ml for HEK 293 cells expressing hMCR-3, hMCR-4 or hMCR-5, and 1×10^5 cells/ml for HEK 293 cells expressing hMCR-1. Suspensions were placed in a water bath and allowed to warm to 37° C. for 1 hr.
Binding assays were performed in a total volume of 250 μl for HEK 293 cells. […] To each tube was added 4×10^3 HEK 293 cells expressing hMCR-3, hMCR-4 or hMCR-5, or 2×10^4 cells expressing hMCR-1. Assays were incubated for 2.5 hr at 37° C.
GF/B filter plates were prepared by soaking for at least one hour in 5 mg/ml BSA and 10 mM CaCl2. Assays were filtered using a Brandel 96-well cell harvester (Brandel Inc.; Gaithersburg, Md.). The filters were washed four times with cold 50 mM Tris, pH 7.4, the filter plates were dehydrated for 2 hr and 35 μl of MICROSCINT was added to each well. Filter plates were counted using a Packard Topcount (Packard Instrument Co.) and data analyzed using GraphPad PRISM v2.0 (GraphPad Software Inc.; San Diego Calif.) and Microsoft EXCEL v5.0a (Microsoft Corp.; Redmond Wash.).
To assay isoquinoline compounds, binding assays were performed in duplicate in a 96 well format. […] A 0.2 ml aliquot of suspended cells was added to each well to give the cell numbers indicate above, and the cells were incubated at 37° C. for 2.5 hr. Cells were harvested on GF/B filter plates as described above and counted.

[1] = competition with 125I-HP 467, HEK 293 cells expressing MCR-1
[2] = inhibition of binding of 125I-HP 467, HEK 293 cells expressing MCR-1

T1 sequence (Q01726 whole entry): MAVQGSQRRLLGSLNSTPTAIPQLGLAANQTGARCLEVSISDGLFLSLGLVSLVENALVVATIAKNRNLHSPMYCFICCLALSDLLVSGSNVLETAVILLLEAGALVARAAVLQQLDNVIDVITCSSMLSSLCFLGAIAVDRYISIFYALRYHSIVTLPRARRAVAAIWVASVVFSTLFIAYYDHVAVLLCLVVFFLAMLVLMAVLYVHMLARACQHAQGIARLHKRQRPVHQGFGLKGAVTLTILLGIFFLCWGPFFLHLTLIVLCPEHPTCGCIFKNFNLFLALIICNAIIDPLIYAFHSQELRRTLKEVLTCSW

SMILES | % Disp. MC-1 10 μM (first of duplicate) | % Disp. MC-1 10 μM (second of duplicate) | further results
CCCCNc1ccc(C2C(CNC3CCCCC3)c3ccccc3CN2CCCCC(CN)NCCc2ccc(OC)cc2)cc1 (centres unmarked) [TRG 2411-92] | – | – | IC50 [1]: 300 nM
CNC(CN)CN1Cc2ccccc2C(CNC2CCCCC2)C1c1cccc([N+](=O)[O-])c1 (centres unmarked) [TRG 2405-139] | 40.3% | 45.5% | –
CCNc1ccc(C2C(CN)c3ccccc3CN2CCCCC(CN)NCC)cc1 (centres unmarked) [TRG 2411-60] | – | – | effectiveness as MC receptor ligand (binding to MC receptors, Table 1): particularly effective MC receptor ligands; IC50 [1]: 50 nM
CNC(CN)CCCCN1Cc2ccccc2C(CNC2CCCCC2)C1c1ccc(F)cc1 (centres unmarked) [TRG 2405-245] | – | – | % Disp. of 125I-HP 467 (first of duplicate): 56.6%; % Disp. of 125I-HP 467 (second of duplicate): 56.8%
CNC(CN)CCCCN1Cc2ccccc2C(CNC2CCCCC2)C1c1ccc(C)o1 (centres unmarked) [TRG 2405-259] | – | – | % Disp. of 125I-HP 467 (first of duplicate): 42.5%; % Disp. of 125I-HP 467 (second of duplicate): 46.1%
CNC(CN)CN1Cc2ccccc2C(CNC2CCCCC2)C1c1ccsc1 (mixture of isomers) [TRG 2405-143] | 54.6% | 50.4% | –
CCCOc1ccc(C2C(CNCCc3ccccc3)c3ccccc3CN2CCCCC(CN)NCc2ccccc2)cc1 (centres unmarked) [TRG 2412-9] | – | – | IC50 [2]: 570 nM
CNC(CN)CCCCN1Cc2ccccc2C(CNC2CCCCC2)C1c1ccc2c(c1)OCCO2 (mixture of isomers) [TRG 2405-183] | – | – | % Disp. of 125I-HP 467 (first of duplicate): 58.9%; % Disp. of 125I-HP 467 (second of duplicate): 64.1%
CNC(CN)CN1Cc2ccccc2C(CNC2CCCCC2)C1c1ccc(CN)cc1 (centres unmarked) [TRG 2405-154] | 43.1% | 54.8% | –
Cc1ccc(C2C(CNC3CCCCC3)c3ccccc3CN2CCN)s1 (centres unmarked) [TRG 2405-78] | 33.3% | 40.8% | –
CNC(C)CNC(CN)CCCN1Cc2ccccc2C(CN)C1c1ccc(-c2ccccc2)cc1 (mixture of isomers) [TRG 2411-142] | – | – | IC50 [1]: 1280 nM
CNC(CN)CN1Cc2ccccc2C(CNC2CCCCC2)C1c1ccc(S(C)(=O)=O)cc1 (centres unmarked) [TRG 2405-177] | – | – | % Disp. of 125I-HP 467 (first of duplicate): 39%; % Disp. of 125I-HP 467 (second of duplicate): 30.7%
CCNc1ccc(C2C(CN)c3ccccc3CN2CCCC(CN)NCCN)cc1 (centres unmarked) [TRG 2411-187] | – | – | IC50 [2]: 60 nM
CCCCOc1ccc(C2C(CNCCc3ccccc3)c3ccccc3CN2CCCCC(CN)NCc2ccccc2)cc1 (centres unmarked) [TRG 2412-12] | – | – | IC50 [2]: 540 nM
CCCCCc1ccc(C2C(CNCCc3ccccc3)c3ccccc3CN2CCCC(CN)NC)cc1 (centres unmarked) [TRG 2412-28] | – | – | IC50 [2]: 270 nM
CNC(CN)CN1Cc2ccccc2C(CNC2CCCCC2)C1c1ccc(OC)cc1 (centres unmarked) [TRG 2405-150] | 37.6% | 54.7% | –
NCCN1Cc2ccccc2C(CNC2CCCCC2)C1c1ccc(F)c(F)c1F (centres unmarked) [TRG 2405-6] | 45.7% | 50% | –
NCC(CCCN1Cc2ccccc2C(CNCCc2ccccc2)C1c1ccc(-c2ccccc2)cc1)NCC1CCCCC1 (centres unmarked) [TRG 2411-125] | – | – | IC50 [1]: 820 nM
CNC(CN)CN1Cc2ccccc2C(CNC2CCCCC2)C1c1cccc(C(F)(F)F)c1 (centres unmarked) [TRG 2405-125] | 59.1% | 58.4% | –
CCNc1ccc(C2C(CNC3CCCCC3)c3ccccc3CN2CC(CN)NC)cc1 (centres unmarked) [TRG 2405-149] | 30.1% | 52.3% | –
CNC(CN)CN1Cc2ccccc2C(CNC2CCCCC2)C1c1ccc(SC)cc1 (centres unmarked) [TRG 2405-147] | 31.6% | 38.9% | –
CNC(CN)CN1Cc2ccccc2C(CNC2CCCCC2)C1c1cc(O)cc(O)c1 (centres unmarked) [TRG 2405-119] | 25.9% | 39.8% | –
CNC(CN)CN1Cc2ccccc2C(CNC2CCCCC2)C1c1ccc(C)s1 (centres unmarked) [TRG 2405-168] | 44.9% | 24.1% | –
CNC(CN)CCCN1Cc2ccccc2C(CN)C1c1ccc(-c2ccccc2)cc1 (centres unmarked) [TRG 2411-137] | – | – | IC50 [1]: 1620 nM
NCCN1Cc2ccccc2C(CNC2CCCCC2)C1c1ccccc1 (mixture of isomers) [TRG 2405-1] | 85.3% | 24.1% | –
NCCN1Cc2ccccc2C(CNC2CCCCC2)C1c1cccc(Oc2ccc(Cl)c(Cl)c2)c1 (centres unmarked) [TRG 2405-33] | 54.2% | 48.7% | –
CNC(CN)CCCCN1Cc2ccccc2C(CNC2CCCCC2)C1c1ccc(OC)c(C)c1 (mixture of isomers) [TRG 2405-226] | – | – | % Disp. of 125I-HP 467 (first of duplicate): 79.1%; % Disp. of 125I-HP 467 (second of duplicate): 77.7%

SMILES | % Disp. MC-1 10 μM (first of duplicate) | % Disp. MC-1 10 μM (second of duplicate) | further results
CCNc1ccc(C2C(CNCCc3ccccc3)c3ccccc3CN2CCCC(CN)NC)cc1 (centres unmarked) [TRG 2413-12] | – | – | IC50 [2]: 190 nM
CNC(CNC(CN)CCCN1Cc2ccccc2C(CNCCc2ccccc2)C1c1ccc(-c2ccccc2)cc1)Cc1ccccc1 (centres unmarked) [TRG 2411-121] | – | – | IC50 [1]: 1070 nM
CNC(CN)CCCCN1Cc2ccccc2C(CNC2CCCCC2)C1c1ccc(C(C)C)cc1 (centres unmarked) [TRG 2405-247] | – | – | % Disp. of 125I-HP 467 (first of duplicate): 83%; % Disp. of 125I-HP 467 (second of duplicate): 85.3%
NCCN1Cc2ccccc2C(CNC2CCCCC2)C1c1c(F)cccc1Cl (centres unmarked) [TRG 2405-14] | 34.2% | 29.6% | –
CCCCNc1ccc(C2C(CNCCc3ccccc3)c3ccccc3CN2CCCC(CN)NCc2ccc(OC)cc2)cc1 (centres unmarked) [TRG 2411-198] | – | – | IC50 [2]: 120 nM
NCCN1Cc2ccccc2C(CNC2CCCCC2)C1c1cc(Cl)cc(Cl)c1Cl (centres unmarked) [TRG 2405-7] | 50.3% | 54.8% | –
NCCNC(CN)CCCN1Cc2ccccc2C(CN)C1c1ccc(-c2ccccc2)cc1 (centres unmarked) [TRG 2411-141] | – | – | IC50 [1]: 1150 nM
CCCOc1ccc(C2C(CNCCc3ccccc3)c3ccccc3CN2CCCCC(CN)NCCc2ccccc2)cc1 (centres unmarked) [TRG 2412-8] | – | – | IC50 [2]: 830 nM
CNC(CN)CN1Cc2ccccc2C(CNC2CCCCC2)C1c1ccc(OC)c(F)c1 (centres unmarked) [TRG 2405-130] | 48.9% | 43.3% | –
CCNc1ccc(C2C(CN)c3ccccc3CN2CCCC[C@@H](CN)NCCc2ccc(Br)cc2)cc1 (some centres unmarked) [TRG 2411-64] | – | – | IC50 [1]: 480 nM
COc1ccccc1C1C(CNC2CCCCC2)c2ccccc2CN1CCN (centres unmarked) [TRG 2405-19] | 42.2% | 36.2% | –
CNC(CN)CN1Cc2ccccc2C(CNC2CCCCC2)C1c1ccc[nH]1 (centres unmarked) [TRG 2405-175] | – | – | % Disp. of 125I-HP 467 (first of duplicate): 68.5%; % Disp. of 125I-HP 467 (second of duplicate): 68.8%
CNC(CN)CCCCN1Cc2ccccc2C(CNC2CCCCC2)C1c1ccc[nH]1 (mixture of isomers) [TRG 2405-265] | – | – | % Disp. of 125I-HP 467 (first of duplicate): 60.5%; % Disp. of 125I-HP 467 (second of duplicate): 54.1%
COc1ccc(C2C(CNC3CCCCC3)c3ccccc3CN2CCN)cc1F (centres unmarked) [TRG 2405-40] | 22.4% | 35.5% | –
NCCN1Cc2ccccc2C(CNC2CCCCC2)C1c1cccnc1 (centres unmarked) [TRG 2405-51] | 30.6% | 23.1% | –
CNC(CN)CN1Cc2ccccc2C(CNC2CCCCC2)C1c1cccc(C)n1 (centres unmarked) [TRG 2405-171] | 63.1% | 49.7% | –
CCCCNc1ccc(C2C(CNC3CCCCC3)c3ccccc3CN2CCCC(N)CN)cc1 (centres unmarked) [TRG 2411-202] | – | – | IC50 [2]: 220 nM
CNC(CN)CN1Cc2ccccc2C(CNC2CCCCC2)C1c1ccc(F)c(F)c1F (centres unmarked) [TRG 2405-96] | 44.5% | 54.4% | –
NCCN1Cc2ccccc2C(CNC2CCCCC2)C1c1cccc(Br)c1 (centres unmarked) [TRG 2405-37] | 49.7% | 54.4% | –
NCC(CCCN1Cc2ccccc2C(CNCCc2ccccc2)C1c1ccc(-c2ccccc2)cc1)NCCO (centres unmarked) [TRG 2411-120] | – | – | IC50 [1]: 1700 nM
NCCNC(CN)CCCCN1Cc2ccccc2C(CN)C1c1ccc(-c2ccccc2)cc1 (centres unmarked) [TRG 2411-27] | – | – | IC50 [1]: 660 nM
CCCCNc1ccc(C2C(CN)c3ccccc3CN2CCCCC(CN)NCc2ccccc2)cc1 (centres unmarked) [TRG 2411-107] | – | – | IC50 [1]: 340 nM
NCCN[C@H](CN)CCCCN1Cc2ccccc2C(CNCCc2ccccc2)C1c1ccc(-c2ccccc2)cc1 (some centres unmarked) [TRG 2411-5] | – | – | IC50 [1]: 790 nM
CCCCNc1ccc(C2C(CNC3CCCCC3)c3ccccc3CN2CCCC(CN)NCCC2CCCCC2)cc1 (centres unmarked) [TRG 2411-214] | – | – | IC50 [2]: 80 nM
CCNc1ccc(C2C(CN)c3ccccc3CN2CCCCC(CN)NCc2ccc(OC)cc2)cc1 (centres unmarked) [TRG 2411-68] | – | – | IC50 [1]: 120 nM
NCCN1Cc2ccccc2C(CNC2CCCCC2)C1c1cccs1 (centres unmarked) [TRG 2405-23] | 43% | 47.8% | –

Now from value to compound, other results behind:

% Disp. MC-1 10 μM (first of duplicate) | % Disp. MC-1 10 μM (second of duplicate) | SMILES | further results
59.8% | 53.6% | NCCN1Cc2ccccc2C(CNC2CCCCC2)C1c1ccc2ccccc2c1 (centres unmarked) [TRG 2405-20] | –
61.9% | 50.8% | NCCN1Cc2ccccc2C(CNC2CCCCC2)C1c1cccc(Oc2ccccc2)c1 (centres unmarked) [TRG 2405-50] | –
